Measured values reported in patent US8664257B2, “Oxygen-substituted 3-heteroaroylamino-propionic acid derivatives and their use as pharmaceuticals” (Sanofi, priority 2010, dated 2014).

molecular target: T1, Recombinant human cathepsin A (Homo sapiens, UniProt P10619); experiment: Cathepsin A inhibitory activity; assay type: biochemical; conditions: pharmacological test "Cathepsin A inhibitory activity"; IC50 given as class A/B/C; read-out: Activity (2): Cathepsin A inhibitory activity, IC50 class
T1 construct: Recombinant human cathepsin A (residues 29-480, with a C-terminal 10-His tag); 10-His (C); purchased R&D Systems 1049-SE
T1 sequence (P10619 29-312 limits assumed): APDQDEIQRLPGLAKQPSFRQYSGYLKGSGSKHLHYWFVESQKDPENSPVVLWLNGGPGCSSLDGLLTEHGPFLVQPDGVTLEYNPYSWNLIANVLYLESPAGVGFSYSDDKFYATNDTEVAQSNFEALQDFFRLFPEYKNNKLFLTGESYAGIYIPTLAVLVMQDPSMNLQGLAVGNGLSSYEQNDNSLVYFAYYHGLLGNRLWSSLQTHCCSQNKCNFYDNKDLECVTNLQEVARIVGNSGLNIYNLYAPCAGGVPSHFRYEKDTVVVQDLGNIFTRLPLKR
T1 sequence (P10619 327-480 limits assumed): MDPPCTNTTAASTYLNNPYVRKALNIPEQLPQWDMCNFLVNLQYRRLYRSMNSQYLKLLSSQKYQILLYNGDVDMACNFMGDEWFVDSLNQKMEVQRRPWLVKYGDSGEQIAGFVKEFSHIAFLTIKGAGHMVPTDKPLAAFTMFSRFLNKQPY
Method: a) Cathepsin A Inhibitory Activity
Recombinant human cathepsin A (residues 29-480, with a C-terminal 10-His tag; R&D Systems, #1049-SE) was proteolytically activated with recombinant human cathepsin L (R&D Systems, #952-CY). Briefly, cathepsin A was incubated at 10 μg/ml with cathepsin L at 1 μg/ml in activation buffer (25 mM 2-(morpholin-4-yl)-ethanesulfonic acid (MES), pH 6.0, containing 5 mM dithiothreitol (DTT)) for 15 min at 37° C. Cathepsin L activity was then stopped by the addition of the cysteine protease inhibitor E-64 (N-(trans-epoxysuccinyl)-L-leucine-4-guanidinobutylamide; Sigma-Aldrich, #E3132; dissolved in activation buffer/DMSO) to a final concentration of 10 μM.
The activated cathepsin A was diluted in assay buffer (25 mM MES, pH 5.5, containing 5 mM DTT) and mixed with the test compound (dissolved in assay buffer containing (v/v) 3% DMSO) or, in the control experiments, with the vehicle in a multiple assay plate. After incubation for 15 min at room temperature, as substrate then bradykinin carrying an N-terminal®Bodipy FL (4,4-difluoro-5,7-dimethyl-4-bora-3a,4a-diaza-s-indacene-3-propionyl) label (JPT Peptide Technologies GmbH; dissolved in assay buffer) was added to the mixture. The final concentration of cathepsin A was 833 ng/ml and the final concentration of labeled bradykinin 2 μM. After incubation for 15 min at room temperature the reaction was stopped by the addition of stop buffer (130 mM 2-(4-(2-hydroxy-ethyl)-piperazin-1-yl)-ethanesulfonic acid, pH 7.4, containing (v/v) 0.013% Triton X-100, 0.13% Coating Reagent 3 (Caliper Life Sciences), 6.5% DMSO and 20 μM ebelactone B (Sigma, # E0886)).
Uncleaved substrate and product were then separated by a microfluidic capillary electrophoresis on a LabChip® 3000 Drug Discovery System (12-Sipper-Chip; Caliper Life Sciences) and quantified by determination of the respective peak areas. Substrate turnover was calculated by dividing product peak area by the sum of substrate and product peak areas, and the enzyme activity and the inhibitory effect of the test compound thus quantified. From the percentage of inhibition of cathepsin A activity observed with the test compound at several concentrations, the inhibitory concentration IC50, i.e. the concentration which effects 50% inhibition of enzyme activity was, calculated.

`Cc1ccccc1[C@H](CC(=O)O)NC(=O)c1cc(O)n(-c2nccc(C(F)(F)F)n2)n1` [Example 138] and `Cc1ccccc1[C@H](CC(=O)O)NC(=O)c1cc(O)n(-c2ccncc2)n1` [Example 141] fall in the same range of IC50: 1 to 30 µM for the first, 1 to 30 µM for the second.

`COc1ccc([C@H](CC(=O)O)NC(=O)c2cc(O)n(-c3ccccc3Cl)n2)cn1` [Example 139] and `COc1ccc([C@H](CC(=O)O)NC(=O)c2cc(O)n(-c3ccccc3)n2)cn1` [Example 144] fall in the same range of IC50: 0.1 to 1 µM for the first, 0.1 to 1 µM for the second.

`O=C(O)C[C@H](NC(=O)c1cc(O)n(-c2ccccc2F)n1)c1cccnc1` [Example 140] and `O=C(O)C[C@H](NC(=O)c1cc(O)n(-c2ccccc2Cl)n1)c1cccnc1` [Example 145] fall in the same range of IC50: 0.1 to 1 µM for the first, 0.1 to 1 µM for the second.

`Cc1cc(F)ccc1C(CC(=O)O)NC(=O)c1cc(O)n(-c2ccccc2Cl)n1` (centres unmarked) [Example 142] and `O=C(O)CC(NC(=O)c1cc(O)n(-c2ccccc2)n1)c1cccc(Cl)c1F` (centres unmarked) [Example 172] fall in the same range of IC50: 0.1 to 1 µM for the first, 0.1 to 1 µM for the second.

Compared with `Cc1ccccc1[C@H](CC(=O)O)NC(=O)c1cc(O)n(-c2cccnc2)n1` [Example 143], `O=C(O)C[C@H](NC(=O)c1cc(O)n(-c2ccccc2)n1)c1ccccc1Br` [Example 159] is lower in IC50: 1 to 30 µM for the first, 0.1 to 1 µM for the second. The second is the more potent here.

First: O=C(O)C[C@H](NC(=O)c1cc(O)n(-c2ccccc2F)n1)c1ccc(-c2ccc(F)cc2)cc1 [Example 146]
Second: O=C(O)C[C@@H](NC(=O)c1cc(O)n(-c2ccccc2F)n1)c1ccc(-c2ccc(F)cc2)cc1 [Example 147]
The IC50 of the first is higher: 1 to 30 µM for the first, under 0.1 µM for the second. The second is the more potent here.

First: O=C(O)C[C@H](NC(=O)c1cc(O)n(-c2ccccc2Cl)n1)c1ccc(-c2ccc(F)cc2)cc1 [Example 148]
Second: O=C(O)C[C@@H](NC(=O)c1cc(O)n(-c2ccccc2Cl)n1)c1ccc(-c2ccc(F)cc2)cc1 [Example 149]
The IC50 of the first is higher: 1 to 30 µM for the first, under 0.1 µM for the second. The second is the more potent here.

First: O=C(O)CC(NC(=O)c1cc(O)n(-c2ccccc2F)n1)c1ccc(-c2ccccc2)cc1 (centres unmarked) [Example 150]
Second: COc1cccc(-c2ccc(C(CC(=O)O)NC(=O)c3cc(O)n(-c4ccccc4F)n3)cc2)c1 (centres unmarked) [Example 156]
The IC50 of the first is lower: under 0.1 µM for the first, 0.1 to 1 µM for the second.

First: O=C(O)CC(NC(=O)c1cc(O)n(-c2ccncc2)n1)c1ccc(-c2ccccc2)cc1 (centres unmarked) [Example 151]
Second: O=C(O)CC(NC(=O)c1cc(O)n(-c2ccccc2)n1)c1ccc(-c2cccc(F)c2)cc1 (centres unmarked) [Example 171]
The IC50 of the first is higher: 1 to 30 µM for the first, 0.1 to 1 µM for the second.

First: COc1cccc(-c2ccc(C(CC(=O)O)NC(=O)c3cc(O)n(-c4ccccc4Cl)n3)cc2)c1 (centres unmarked) [Example 157]
Second: COc1cccc([C@H](CC(=O)O)NC(=O)c2cc(O)n(-c3ccccc3)n2)c1 [Example 165]
The IC50 of the first is lower: 0.1 to 1 µM for the first, 1 to 30 µM for the second. The first is the more potent here.

First: O=C(O)CC(NC(=O)c1cc(O)n(-c2ccccc2)n1)c1cccc2c1OCO2 (centres unmarked) [Example 158]
Second: O=C(O)C[C@H](NC(=O)c1cc(O)n(-c2ccccc2)n1)c1cccc(Cl)c1Cl [Example 164]
The IC50 of the first is higher: 0.1 to 1 µM for the first, under 0.1 µM for the second. The second is the more potent here.

`N#Cc1cccc([C@H](CC(=O)O)NC(=O)c2cc(O)n(-c3ccccc3)n2)c1` [Example 160] and `O=C(O)C[C@H](NC(=O)c1cc(O)n(-c2ccccc2)n1)c1cccc(F)c1` [Example 166] fall in the same range of IC50: 1 to 30 µM for the first, 1 to 30 µM for the second.

First: COc1ccc(C(CC(=O)O)NC(=O)c2cc(O)n(-c3ccccc3)n2)c(OC)c1 (centres unmarked) [Example 161]
Second: COc1ccc(C(CC(=O)O)NC(=O)c2cc(O)n(-c3ccccc3)n2)c(Cl)c1 (centres unmarked) [Example 162]
The IC50 of the first is higher: 1 to 30 µM for the first, 0.1 to 1 µM for the second. The second is the more potent here.

`O=C(O)C[C@H](NC(=O)c1cc(O)n(-c2ccccc2)n1)c1ccc(F)cc1` [Example 163] and `O=C(O)C[C@H](NC(=O)c1cc(O)n(-c2ccccc2)n1)c1cccc(Cl)c1` [Example 167] fall in the same range of IC50: 0.1 to 1 µM for the first, 0.1 to 1 µM for the second.

`O=C(O)CC(NC(=O)c1cc(O)n(-c2ccccc2)n1)c1cccc(Cl)c1Cl` (centres unmarked) [Example 168] and `COc1cccc([C@H](CC(=O)O)NC(=O)c2cc(O)n(-c3ccccc3)n2)c1OC` [Example 170] fall in the same range of IC50: 0.1 to 1 µM for the first, 0.1 to 1 µM for the second.

`COc1ccccc1[C@@H](NC(=O)c1cc(O)n(-c2ccccc2)n1)[C@@H](O)C(=O)O` [Example 169] was tested, and the IC50 was 1 to 30 µM.

same assay, conditions: read-out: Activity (2): Cathepsin A inhibitory activity, IC50 class

`COc1ccccc1[C@H](CC(=O)O)NC(=O)c1cc(O)n(-c2ccccc2Cl)n1` [Example 111] and `COc1ccccc1[C@H](CC(=O)O)NC(=O)c1cc(O)n(-c2ccccc2F)n1` [Example 122] fall in the same range of IC50: 0.1 to 1 µM for the first, 0.1 to 1 µM for the second.

`N#Cc1ccc([C@H](CC(=O)O)NC(=O)c2cc(O)n(-c3ccccc3Cl)n2)cc1` [Example 112] and `N#Cc1ccc([C@H](CC(=O)O)NC(=O)c2cc(O)n(-c3ccccc3F)n2)cc1` [Example 123] fall in the same range of IC50: 0.1 to 1 µM for the first, 0.1 to 1 µM for the second.

`O=C(O)CC(NC(=O)c1cc(O)n(-c2ccccc2Cl)n1)c1ccc(Oc2ccccc2)cc1` (centres unmarked) [Example 113] and `O=C(O)CC(NC(=O)c1cc(O)n(-c2ccccc2F)n1)c1ccc(Oc2ccccc2)cc1` (centres unmarked) [Example 124] fall in the same range of IC50: 0.1 to 1 µM for the first, 0.1 to 1 µM for the second.

`O=C(O)C[C@H](NC(=O)c1cc(O)n(-c2ccccc2Cl)n1)c1c(F)cccc1F` [Example 114] and `O=C(O)C[C@H](NC(=O)c1cc(O)n(-c2ccccc2F)n1)c1c(F)cccc1F` [Example 125] fall in the same range of IC50: 0.1 to 1 µM for the first, 0.1 to 1 µM for the second.

`O=C(O)CC(NC(=O)c1cc(O)n(-c2ccccc2Cl)n1)c1ccc(-c2ccc(F)cc2)cc1` (centres unmarked) [Example 115] and `O=C(O)CC(NC(=O)c1cc(O)n(-c2ccccc2F)n1)c1ccc(-c2ccc(F)cc2)cc1` (centres unmarked) [Example 126] cannot be ordered by IC50: under 0.1 µM for the first, under 0.1 µM for the second.

`O=C(O)CC(NC(=O)c1cc(O)n(-c2ccccc2Cl)n1)c1ccc(-n2ccnc2)cc1` (centres unmarked) [Example 116] and `O=C(O)CC(NC(=O)c1cc(O)n(-c2ccccc2F)n1)c1ccc(-n2ccnc2)cc1` (centres unmarked) [Example 127] fall in the same range of IC50: 1 to 30 µM for the first, 1 to 30 µM for the second.

`O=C(O)C[C@H](NC(=O)c1cc(O)n(-c2ccccc2F)n1)c1ccc(Cl)cc1Cl` [Example 117] and `O=C(O)C[C@H](NC(=O)c1cc(O)n(-c2ccccc2F)n1)c1ccc(Cl)cc1` [Example 120] fall in the same range of IC50: 0.1 to 1 µM for the first, 0.1 to 1 µM for the second.

`O=C(O)C[C@H](NC(=O)c1cc(O)n(-c2ccccc2F)n1)c1ccccc1F` [Example 118] and `O=C(O)C[C@H](NC(=O)c1cc(O)n(-c2ccccc2F)n1)c1ccccc1C(F)(F)F` [Example 119] fall in the same range of IC50: 0.1 to 1 µM for the first, 0.1 to 1 µM for the second.

`O=C(O)C[C@H](NC(=O)c1cc(O)n(-c2ccccc2F)n1)c1ccc(C(F)(F)F)cc1` [Example 121] and `CCc1ccc(C(CC(=O)O)NC(=O)c2cc(O)n(-c3ccccc3F)n2)cc1` (centres unmarked) [Example 134] fall in the same range of IC50: 0.1 to 1 µM for the first, 0.1 to 1 µM for the second.

Compared with `COc1cc(C(=O)N[C@@H](CC(=O)O)c2ccccc2C)nn1-c1ccccc1F` [Example 129, (S)-3-{[1-(2-Fluoro-phenyl)-5-methoxy-1H-pyrazole-3-carbonyl]-amino}-3-o-tolyl-propionic acid], `COc1ccc(C(CC(=O)O)NC(=O)c2cc(O)n(-c3ccccc3F)n2)c(F)c1` (centres unmarked) [Example 133] is higher in IC50: under 0.1 µM for the first, 0.1 to 1 µM for the second.

Compared with `Cc1ccccc1[C@H](CC(=O)O)NC(=O)c1cc(O)n(-c2ccc(Cl)cn2)n1` [Example 130], `Cc1ccccc1[C@H](CC(=O)O)NC(=O)c1cc(O)n(-c2ccnc(Cl)c2)n1` [Example 131] is lower in IC50: 1 to 30 µM for the first, 0.1 to 1 µM for the second.

`COc1ccc(C(CC(=O)O)NC(=O)c2cc(O)n(-c3ccccc3Cl)n2)c(F)c1` (centres unmarked) [Example 132] and `Cc1ccc([C@H](CC(=O)O)NC(=O)c2cc(O)n(-c3ccccc3Cl)n2)cc1` [Example 135, (S)-3-{[1-(2-Chloro-phenyl)-5-hydroxy-1H-pyrazole-3-carbonyl]-amino}-3-p-tolyl-propionic acid] fall in the same range of IC50: 0.1 to 1 µM for the first, 0.1 to 1 µM for the second.

`COc1ccc([C@H](CC(=O)O)NC(=O)c2cc(O)n(-c3ccccc3F)n2)cn1` [Example 136] and `O=C(O)C[C@H](NC(=O)c1cc(O)n(-c2ccccc2)n1)c1cccnc1` [Example 137] fall in the same range of IC50: 0.1 to 1 µM for the first, 0.1 to 1 µM for the second.

same assay, conditions: recombinant human cathepsin A 833 ng/ml, Bodipy FL-labeled bradykinin 2 μM, pH 5.5; read-out: CATH-A IC50

In order of rising IC50:
1. COc1cc(C(=O)N[C@@H](CC(=O)O)c2ccccc2C)nn1-c1ccccc1F [Example 129, (S)-3-{[1-(2-Fluoro-phenyl)-5-methoxy-1H-pyrazole-3-carbonyl]-amino}-3-o-tolyl-propionic acid]  0.0412 µM
2. Cc1ccc([C@H](CC(=O)O)NC(=O)c2cc(O)n(-c3ccccc3Cl)n2)cc1 [Example 135, (S)-3-{[1-(2-Chloro-phenyl)-5-hydroxy-1H-pyrazole-3-carbonyl]-amino}-3-p-tolyl-propionic acid]  0.211 µM
